Experimental findings from PMC7979488 (ChemMedChem, 2020) are described below.

The subject of experiment [1] is SARS-CoV-2. Format: cell-based.
Experiment [2] relates to SARS-CoV-2. The experiment is classed as cell-based. Particulars: A549/ACE2 cells.
Where [3] appears, read: Vero E6 cells, tested range 80 nM to 10 μM, two repeats.

Like-named read-outs stand apart in the source and are kept apart here.

On to `O=C[C@H](C[C@@H]1CCNC1=O)NC(=O)[C@H](CC1CCCCC1)NC(=O)c1cc2ccccc2[nH]1` [11a, reference compound], for which, in the experiment on SARS-CoV-2 [1] (setting [3]), the “concentration at which SARS-CoV-2-induced CPE was completely abolished” value came to 10 µM.
Take `O=C[C@H](C[C@@H]1CCNC1=O)NC(=O)[C@H](Cc1ccccc1)NC(=O)/C=C/c1ccc(Cl)cc1F` [MPI2]: in the experiment with SARS-CoV-2 [1] (setting [3]), the “concentration at which SARS-CoV-2-induced CPE was completely abolished” value amounted to 10 µM.
Take `CC(C)C[C@H](NC(=O)[C@@H](NC(=O)OCc1ccccc1)C(C)C)C(=O)N[C@H](C=O)C[C@@H]1CCNC1=O` [MPI3]: the “complete prevention of CPE (in words)” value with SARS-CoV-2 [1] (Vero E6 cells, tested range 80 nM to 10 μM) is on record as “not able to completely prevent CPE at all tested concentrations”.
`CC(C)[C@H](NC(=O)OCc1ccccc1)C(=O)N[C@@H](CC1CCCCC1)C(=O)N[C@H](C=O)C[C@@H]1CCNC1=O` [MPI5]: in the experiment on SARS-CoV-2 [2] (as stated in abstract), the “concentration for complete prevention of SARS-CoV-2-induced CPE” value was 0.16 to 0.31 µM. The “concentration for complete abolition of CPE” value in the experiment with SARS-CoV-2 [2] (tested range 80 nM to 10 μM) was in the range of 160 to 310 nM. In addition, the “concentration at which SARS-CoV-2-induced CPE was completely abolished” value in the experiment on SARS-CoV-2 [1] (setting [3]) was 5 µM.
As for `CC(OC(C)(C)C)[C@H](NC(=O)OCc1ccccc1)C(=O)N[C@@H](Cc1ccccc1)C(=O)N[C@H](C=O)C[C@@H]1CCNC1=O` (stereo partly drawn) [MPI7], the “complete abolition of CPE / potency (in words)” value in the experiment on SARS-CoV-2 [2] (tested range 80 nM to 10 μM) is “not able to completely abolish CPE at all tested conditions”. Further, the “concentration at which SARS-CoV-2-induced CPE was completely abolished” value in the experiment on SARS-CoV-2 [1] (setting [3]) was 2.5 to 5 µM.
GC376 [reference compound]: the “concentration at which SARS-CoV-2-induced CPE was completely abolished” value in the experiment with SARS-CoV-2 [1] turned out to be 10 µM.
